Where a SMILES comes first, the peptide text is derived from it. The star is where a group is joined. Cbz = O=C(OCc1ccccc1)*
How the values were obtained:
Type in all cases: cell-based, human
[1] = test system: BARD1; experiment: Immunoblot of BARD1 protein levels in breast carcinoma cells; conditions: for effect of pretreatment on E2-induced accumulation of BARD1 protein: MCF7, steroid depleted, pretreatment before E2; for BARD1 protein levels under proteasome inhibition: MCF7, steroid depleted medium, 0.5, 4 or 8 hours
Protocol: (§1) MCF7 cells were obtained from the American Type Culture Collection (#HTB-22). T47D cells were provided by Baylor College of Medicine. Both lines were normally maintained at 37° C. with 5% CO2 in DMEM with 1 mM L-glutamine (Gibco) supplemented with 10% Fetalclone serum (HyClone) and 1% non-essential amino acids (Gibco). For steroid depleted conditions (denoted as CSS), cells were cultured in phenol-free DMEM with 1 mM L-glutamine and 25 mM HEPES supplemented with 10% charcoal/dextran treated fetal bovine serum (Gemini Bioproducts). 17-β-estradiol and MG132 were obtained from Sigma-Aldrich. Cycloheximide, U0126, and p38 inhibitor were obtained from Calbiochem. ICI 182780 was obtained from Tocris Biosciences. LY294002 was obtained from Cell Signaling Technology.
(§2) Whole cell lysates were prepared by washing cells twice with PBS and then scraping into ice-cold PBS. Pelleted cells were resuspended in modified RIPA buffer (50 mM Tris base, 150 mM NaCl, 2 mM EDTA, 1% Triton X-100, 0.5% Na-deoxycholate, 0.1% SDS, 50 mM NaF, 5 mM Na3VO4, plus Roche protease inhibitor tablets). Lysates were incubated for 30 minutes on ice, clarified by centrifugation, and protein concentration determined by Bradford assay (BioRad). Where indicated, lysates harvested without phosphatase inhibitors were treated with λ-phosphatase (New England Biolabs) according to manufacturer's instructions. 100 μg of total protein was loaded per lane for Tris-glycine SDS-PAGE. Samples were transferred to PVDF membrane (Millipore) for 200 volt-hours at 50 V constant at 16° C. Membranes were blocked in 5% dry non-fat milk (Carnation) dissolved in either PBS or TBS (25 mM Tris pH 8.0, 135 mM NaCl, 2.5 mM KCl). Primary antibody incubations were performed overnight at 4° C. diluted in either 0.5% dry non-fat milk/PBS-Tween-20 0.1% or in 3% BSA (Santa Cruz Biotechnology)/TBS-Tween-20 0.1%. Antibody suppliers are: BRCA1 (Ab-4 and Ab-1, Calbiochem); BARD1 (Bethyl Laboratories); Lamin A/C, phospho-(Ser/Thr) Akt Substrate, phospho-5473 Akt, and Akt (Cell Signaling Technology); Cyclin D1 (Lab Vision Corp.); Tubulin (Chemicon). Secondary antibodies were obtained from Amersham/GE Healthcare. Densitometry was performed on 600 dpi TIFF scans of Western blot films with Quantity One software (BioRad). Density values for BRCA1 and BARD1 in each sample were normalized by the value of the corresponding Lamin A/C density as a control for loading.

[2] = test system: BRCA1; experiment: Immunoblot of BRCA1 protein levels in breast carcinoma cells; conditions: for effect of pretreatment on E2-induced accumulation of BRCA1 protein: MCF7, steroid depleted, pretreatment before E2; for BRCA1 protein levels under proteasome inhibition: MCF7, steroid depleted medium, 0.5, 4 or 8 hours
Protocol: as §1, §2

[3] = test system: Akt; experiment: Immunoblot of phosphorylated Akt (pS473), Akt activation; conditions: MCF7, steroid depleted medium, after treatment
Protocol: as §1
Whole cell lysates were prepared by washing cells twice with PBS and then scraping into ice-cold PBS. Pelleted cells were resuspended in modified RIPA buffer (50 mM Tris base, 150 mM NaCl, 2 mM EDTA, 1% Triton X-100, 0.5% Na-deoxycholate, 0.1% SDS, 50 mM NaF, 5 mM Na3VO4, plus Roche protease inhibitor tablets). Lysates were incubated for 30 minutes on ice, clarified by centrifugation, and protein concentration determined by Bradford assay (BioRad). […] Densitometry was performed on 600 dpi TIFF scans of Western blot films with Quantity One software (BioRad). […]

Row | SMILES | effect of pretreatment on E2-induced accumulation of BARD1 protein [1] | effect of pretreatment on E2-induced accumulation of BRCA1 protein [2] | BARD1 protein levels under proteasome inhibition [1] | Akt activation (phosphorylated Akt pS473) [3] | BRCA1 protein levels under proteasome inhibition [2]
1 | C[C@]12CC[C@@H]3c4ccc(O)cc4C[C@@H](CCCCCCCCC[S+]([O-])CCCC(F)(F)C(F)(F)F)[C@H]3[C@@H]1CC[C@@H]2O (some centres unmarked) [ICI 182780] | abolished | abolished | – | – | –
2 | N#CC(=C(/N)Sc1ccccc1N)/C(C#N)=C(/N)Sc1ccccc1N [MEK 1/2] | – | no effect | – | – | –
3 | CC(C)C[C@@H](C=O)NC(=O)[C@H](CC(C)C)NC(=O)[C@H](CC(C)C)NC(=O)OCc1ccccc1 [MG132] (Cbz-Leu-Leu-Leu-aldehyde) | – | – | accumulation | dramatic activation | accumulation
4 | CC(C)C[C@H](NC(=O)[C@H](Cc1ccccc1)NC(=O)c1cnccn1)B(O)O [bortezomib] | – | – | rapidly increased | only minor activation | rapidly increased
5 | C[C@@H]1C[C@@H]([C@H](O)CC2CC(=O)NC(=O)C2)C(=O)[C@@H](C)C1 [cycloheximide, Cycloheximide] | did not prevent | did not prevent | – | – | –

Reference: patent publication US20120040896A1, “COMPOSITIONS, METHODS AND USES FOR MODULATION OF BRCA 1” (THE REGENTS OF THE UNIVERSITY OF COLORADO, priority 2008, published 2012)
